From PMC12669040, “Tumour-specific STING agonist synthesis via a two-component prodrug system” (Nature Chemistry, 2025)
Where “and” joins values, the source holds several entries; their conditions need not be identical. Equal values may be shown once.

Experiments:
[1] = Colorimetric alkylation rate constant assay with thiol N1; format: physicochemical; conditions: for remaining [A]: N1 from calibration curve (N1 in uM); for remaining [A] / remaining [B]: in µM
[2] = Colorimetric alkylation rate constant assay with TNB^2− as non-specific thiol; format: physicochemical; design: second-order: unit not given here; conditions: for remaining [B]: in µM
[3] = Time 2891 sec, [B]0 = 250, Replicates 1-3
[4] = Time 3071 sec, [B]0 = 250, Replicates 1-3
[5] = Time 3252 sec, [B]0 = 250, Replicates 1-3
[6] = Time 3433 sec, [B]0 = 250, Replicates 1-3
[7] = Time 3613 sec, [B]0 = 250, Replicates 1-3

Compound: O=C(CCl)Nc1ccc(F)cc1 [Compound C3]
- remaining [A] ([1]; Replicate 1, time 576 sec): 79.3821
- remaining [B] ([1]; Replicate 1, time 576 sec, [B]0 = 250): 225.262
- second-order ([1]; Replicate 1, time 576 sec, second-order plot value): 0.001145
- remaining [A] ([1]; Replicate 1, time 606 sec): 78.3561
- remaining [B] ([1]; Replicate 1, time 606 sec, [B]0 = 250): 224.236
- second-order ([1]; Replicate 1, time 606 sec, second-order plot value): 0.001203
- remaining [A] ([1]; Replicate 2, time 576 sec): 78.9353
- remaining [B] ([1]; Replicate 2, time 576 sec, [B]0=250): 225.794
- second-order ([1]; Replicate 2, time 576 sec, second-order plot value): 0.001128
- remaining [A] ([1]; Replicate 2, time 606 sec): 77.6031
- remaining [B] ([1]; Replicate 2, time 606 sec, [B]0=250): 224.461
- second-order ([1]; Replicate 2, time 606 sec, second-order plot value): 0.001203
- remaining [A] ([1]; Replicate 3, time 576 sec): 80.3332
- remaining [B] ([1]; Replicate 3, time 576 sec, [B]0=250): 225.786
- second-order ([1]; Replicate 3, time 576 sec, second-order plot value): 0.001111
- remaining [A] ([1]; Replicate 3, time 606 sec): 79.3051
- remaining [B] ([1]; Replicate 3, time 606 sec, [B]0=250): 224.758
- second-order ([1]; Replicate 3, time 606 sec, second-order plot value): 0.001168
- remaining [B] ([1]; time 0 sec, [B]0 = 250, replicates 1-3): 246.537 and 247.093 and 245.89
- second-order ([1]; time 0 sec, replicates 1-3): 0.000164 and 0.0001357 and 0.0001139
- remaining [B] ([1]; time 30 sec, [B]0 = 250, replicates 1-3): 245.319 and 244.842 and 244.643
- second-order ([1]; time 30 sec, replicates 1-3): 0.0002157 and 0.000185 and 0.0002054
- remaining [B] ([1]; time 60 sec, [B]0 = 250, replicates 1-3): 243.453 and 243.816 and 242.942
- second-order ([1]; time 60 sec, replicates 1-3): 0.0002877 and 0.0002622 and 0.000248
- remaining [B] ([1]; time 91 sec, [B]0 = 250, replicates 1-3): 242.316 and 242.334 and 241.723
- second-order ([1]; time 91 sec, replicates 1-3): 0.0003403 and 0.0003102 and 0.0003108
- remaining [B] ([1]; time 121 sec, [B]0 = 250, replicates 1-3): 241.072 and 241.108 and 240.278
- second-order ([1]; time 121 sec, replicates 1-3): 0.0004041 and 0.0003637 (2×)
- remaining [B] ([1]; time 151 sec, [B]0 = 250, replicates 1-3): 240.152 and 239.968 and 239.257
- second-order ([1]; time 151 sec, replicates 1-3): 0.0004499 and 0.0004039 and 0.0004137
- remaining [B] ([1]; time 182 sec, [B]0 = 250, replicates 1-3): 239.232 and 238.714 and 238.265
- second-order ([1]; time 182 sec, replicates 1-3): 0.0004951 and 0.0004446 and 0.0004698
- remaining [B] ([1]; time 212 sec, [B]0 = 250, replicates 1-3): 238.15 and 237.631 and 237.245
- second-order ([1]; time 212 sec, replicates 1-3): 0.0005423 and 0.0004932 and 0.0005191
- remaining [B] ([1]; time 242 sec, [B]0 = 250, replicates 1-3): 236.96 and 236.491 and 236.366
- second-order ([1]; time 242 sec, replicates 1-3): 0.0005835 and 0.0005476 and 0.0005718
- remaining [B] ([1]; time 273 sec, [B]0 = 250, replicates 1-3): 235.85 and 235.38 and 235.431
- second-order ([1]; time 273 sec, replicates 1-3): 0.0006281 and 0.0005992 and 0.0006241
- remaining [B] ([1]; time 303 sec, [B]0 = 250, replicates 1-3): 234.308 and 234.268 and 234.354
- second-order ([1]; time 303 sec, replicates 1-3): 0.0006802 and 0.0006724 and 0.0006773
- remaining [B] ([1]; time 333 sec, [B]0 = 250, replicates 1-3): 233.361 and 233.157 and 233.277
- second-order ([1]; time 333 sec, replicates 1-3): 0.0007331 and 0.0007182 and 0.0007315
- remaining [B] ([1]; time 364 sec, [B]0 = 250, replicates 1-3): 232.279 and 232.188 and 232.341
- second-order ([1]; time 364 sec, replicates 1-3): 0.0007799 and 0.0007714 and 0.0007795
- remaining [B] ([1]; time 394 sec, [B]0 = 250, replicates 1-3): 231.197 and 231.247 and 230.981
- second-order ([1]; time 394 sec, replicates 1-3): 0.0008491 and 0.0008256 and 0.0008268
- remaining [B] ([1]; time 424 sec, [B]0 = 250, replicates 1-3): 230.602 and 230.05 and 230.442
- second-order ([1]; time 424 sec, replicates 1-3): 0.000877 and 0.0008557 and 0.000888
- remaining [B] ([1]; time 454 sec, [B]0 = 250, replicates 1-3): 229.357 and 229.309 and 229.478
- second-order ([1]; time 454 sec, replicates 1-3): 0.0009274 and 0.0009198 and 0.0009265
- remaining [B] ([1]; time 485 sec, [B]0 = 250, replicates 1-3): 228.681 and 228.084 and 229.195
- second-order ([1]; time 485 sec, replicates 1-3): 0.0009424 and 0.0009551 and 0.0009912
- remaining [B] ([1]; time 515 sec, [B]0 = 250, replicates 1-3): 227.112 and 227.086 and 227.097
- second-order ([1]; time 515 sec, replicates 1-3): 0.001056 and 0.001039 and 0.001045
- remaining [B] ([1]; time 545 sec, [B]0 = 250, replicates 1-3): 226.462 and 226.317 and 225.935
- second-order ([1]; time 545 sec, replicates 1-3): 0.00112 and 0.001074 and 0.001087
- remaining [B] ([2]; Replicate 1, 723 sec, [B]0 = 250): 244.563
- remaining [B] ([2]; Replicate 1, 903 sec, [B]0 = 250): 244.311
- remaining [B] ([2]; Replicate 1, 1084 sec, [B]0 = 250): 243.946
- remaining [B] ([2]; Replicate 1, 1265 sec, [B]0 = 250): 243.644
- remaining [B] ([2]; Replicate 1, 1445 sec, [B]0 = 250): 243.291
- remaining [B] ([2]; Replicate 1, 1626 sec, [B]0 = 250): 242.976
- remaining [B] ([2]; Replicate 1, 1806 sec, [B]0 = 250): 242.497
- remaining [B] ([2]; Replicate 1, 1988 sec, [B]0 = 250): 242.245
- remaining [B] ([2]; Replicate 1, 2168 sec, [B]0 = 250): 242.005
- remaining [B] ([2]; Replicate 1, 2349 sec, [B]0 = 250): 241.552
- remaining [B] ([2]; Replicate 1, 2530 sec, [B]0 = 250): 241.262
- remaining [B] ([2]; Replicate 1, 2710 sec, [B]0 = 250): 240.985
- remaining [B] ([2]; Replicate 2, 542 sec, [B]0=250): 244.808
- remaining [B] ([2]; Replicate 2, 723 sec, [B]0=250): 244.493
- remaining [B] ([2]; Replicate 2, 903 sec, [B]0=250): 244.204
- remaining [B] ([2]; Replicate 2, 1084 sec, [B]0=250): 243.889
- remaining [B] ([2]; Replicate 2, 1265 sec, [B]0=250): 243.586
- remaining [B] ([2]; Replicate 2, 1445 sec, [B]0=250): 243.259
- remaining [B] ([2]; Replicate 2, 1626 sec, [B]0=250): 242.931
- remaining [B] ([2]; Replicate 2, 1806 sec, [B]0=250): 242.666
- remaining [B] ([2]; Replicate 2, 1988 sec, [B]0=250): 242.326
- remaining [B] ([2]; Replicate 2, 2168 sec, [B]0=250): 242.036
- remaining [B] ([2]; Replicate 2, 2349 sec, [B]0=250): 241.734
- remaining [B] ([2]; Replicate 2, 2530 sec, [B]0=250): 241.457
- remaining [B] ([2]; Replicate 2, 2710 sec, [B]0=250): 241.142
- remaining [B] ([2]; Replicate 3, 723 sec, [B]0=250): 244.853
- remaining [B] ([2]; Replicate 3, 903 sec, [B]0=250): 244.526
- remaining [B] ([2]; Replicate 3, 1084 sec, [B]0=250): 244.173
- remaining [B] ([2]; Replicate 3, 1265 sec, [B]0=250): 243.82
- remaining [B] ([2]; Replicate 3, 1445 sec, [B]0=250): 243.568
- remaining [B] ([2]; Replicate 3, 1626 sec, [B]0=250): 243.24
- remaining [B] ([2]; Replicate 3, 1806 sec, [B]0=250): 242.913
- remaining [B] ([2]; Replicate 3, 1988 sec, [B]0=250): 242.686
- remaining [B] ([2]; Replicate 3, 2168 sec, [B]0=250): 242.333
- remaining [B] ([2]; Replicate 3, 2349 sec, [B]0=250): 241.955
- remaining [B] ([2]; Replicate 3, 2530 sec, [B]0=250): 241.627
- remaining [B] ([2]; Replicate 3, 2710 sec, [B]0=250): 241.35
- second-order [2, 3]: 0.0003934 and 0.0003816 and 0.000404
- remaining [B] [2, 3]: 241.06 and 240.569 and 240.801
- second-order [2, 4]: 0.0004067 and 0.0003942 and 0.0004162
- remaining [B] [2, 4]: 240.783 and 240.304 and 240.512
- second-order [2, 5]: 0.0004206 and 0.0004081 and 0.0004267
- remaining [B] [2, 5]: 240.481 and 240.077 and 240.209
- second-order [2, 6]: 0.0004352 and 0.0004273 and 0.0004471
- remaining [B] [2, 6]: 240.065 and 239.636 and 239.894
- second-order [2, 7]: 0.0004498 and 0.0004372 and 0.0004612
- remaining [B] [2, 7]: 239.851
- second-order ([2]; Time 3794 sec, [B]0 = 250, Replicates 1-3): 0.0004633 and 0.0004542 and 0.0004754
- second-order ([2]; Time 3974 sec, [B]0 = 250, Replicates 1-3): 0.0004793 and 0.0004648 and 0.0004891
- second-order ([2]; Time 4155 sec, [B]0 = 250, Replicates 1-3): 0.0004918 and 0.0004819 and 0.0004992
- second-order ([2]; Time 4336 sec, [B]0 = 250, Replicates 1-3): 0.0005073 and 0.0004944 and 0.000519
- second-order ([2]; Time 4516 sec, [B]0 = 250, Replicates 1-3): 0.0005217 and 0.00051 and 0.0005352
- second-order ([2]; Time 4697 sec, [B]0 = 250, Replicates 1-3): 0.0005368 and 0.0005292 and 0.0005485
- second-order ([2]; Time 4878 sec, [B]0 = 250, Replicates 1-3): 0.0005501 and 0.00054 and 0.0005589
- second-order ([2]; Time 5058 sec, [B]0 = 250, Replicates 1-3): 0.0005616 and 0.0005558 and 0.0005759
- second-order ([2]; Time 5239 sec, [B]0 = 250, Replicates 1-3): 0.0005799 and 0.0005704 and 0.0005876
- second-order ([2]; Time 5419 sec, [B]0 = 250, Replicates 1-3): 0.0005928 and 0.0005784 and 0.0006067
- second-order ([2]; Time 5600 sec, [B]0 = 250, Replicates 1-3): 0.000607 and 0.0005999 and 0.0006197
- second-order ([2]; Time 5781 sec, [B]0 = 250, Replicates 1-3): 0.0006238 and 0.0006104 and 0.000634
- second-order ([2]; Time 5961 sec, [B]0 = 250, Replicates 1-3): 0.0006375 and 0.0006271 and 0.0006509
